Results taken from ChEMBL document CHEMBL1130542, “Design and synthesis of an -mannosyl terpenoid as selective inhibitor of P-selectin” (Bioorg Med Chem Lett, 1997).
Active and inactive are the calls of the source. The rule behind the calls is not given here.

Assays:
[1] = target: T1, E-selectin (Homo sapiens) (UniProt P16581); test: Inhibitory activity against Selectin E was determined; IA=Inactive
T1 sequence (whole entry): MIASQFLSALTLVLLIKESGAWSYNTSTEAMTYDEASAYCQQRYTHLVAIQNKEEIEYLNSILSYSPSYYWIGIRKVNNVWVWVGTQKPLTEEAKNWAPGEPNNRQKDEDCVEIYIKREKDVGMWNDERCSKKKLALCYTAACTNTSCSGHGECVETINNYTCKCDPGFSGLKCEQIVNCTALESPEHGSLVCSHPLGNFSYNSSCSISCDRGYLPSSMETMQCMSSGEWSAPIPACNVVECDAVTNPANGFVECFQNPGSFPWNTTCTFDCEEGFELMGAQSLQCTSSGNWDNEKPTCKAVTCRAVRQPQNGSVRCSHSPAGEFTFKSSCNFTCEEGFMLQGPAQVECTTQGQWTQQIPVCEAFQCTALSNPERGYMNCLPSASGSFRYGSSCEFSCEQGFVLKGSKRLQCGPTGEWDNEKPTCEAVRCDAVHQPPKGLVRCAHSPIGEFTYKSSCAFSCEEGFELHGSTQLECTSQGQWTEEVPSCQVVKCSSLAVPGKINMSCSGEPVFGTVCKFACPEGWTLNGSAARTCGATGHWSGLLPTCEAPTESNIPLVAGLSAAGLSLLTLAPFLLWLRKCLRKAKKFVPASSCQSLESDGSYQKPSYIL

[2] = target: T2, L-selectin (Homo sapiens) (UniProt P14151); test: Inhibitory activity against L-selectin was determined; IA=Inactive
T2 sequence (whole entry): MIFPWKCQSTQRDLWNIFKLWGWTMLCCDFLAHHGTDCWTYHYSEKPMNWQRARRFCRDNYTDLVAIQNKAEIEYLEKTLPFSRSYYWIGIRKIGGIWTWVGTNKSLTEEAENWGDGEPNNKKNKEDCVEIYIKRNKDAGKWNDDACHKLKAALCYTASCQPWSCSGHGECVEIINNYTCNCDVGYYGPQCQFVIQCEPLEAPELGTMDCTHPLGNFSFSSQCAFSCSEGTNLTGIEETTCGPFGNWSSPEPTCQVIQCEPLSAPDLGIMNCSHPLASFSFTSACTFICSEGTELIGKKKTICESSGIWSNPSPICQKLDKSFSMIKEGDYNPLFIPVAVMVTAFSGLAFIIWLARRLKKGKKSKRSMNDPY

[3] = target: T3, P-selectin (Homo sapiens) (UniProt P16109); test: Inhibitory activity against P-selectin was determined; IA=Inactive
T3 sequence (whole entry): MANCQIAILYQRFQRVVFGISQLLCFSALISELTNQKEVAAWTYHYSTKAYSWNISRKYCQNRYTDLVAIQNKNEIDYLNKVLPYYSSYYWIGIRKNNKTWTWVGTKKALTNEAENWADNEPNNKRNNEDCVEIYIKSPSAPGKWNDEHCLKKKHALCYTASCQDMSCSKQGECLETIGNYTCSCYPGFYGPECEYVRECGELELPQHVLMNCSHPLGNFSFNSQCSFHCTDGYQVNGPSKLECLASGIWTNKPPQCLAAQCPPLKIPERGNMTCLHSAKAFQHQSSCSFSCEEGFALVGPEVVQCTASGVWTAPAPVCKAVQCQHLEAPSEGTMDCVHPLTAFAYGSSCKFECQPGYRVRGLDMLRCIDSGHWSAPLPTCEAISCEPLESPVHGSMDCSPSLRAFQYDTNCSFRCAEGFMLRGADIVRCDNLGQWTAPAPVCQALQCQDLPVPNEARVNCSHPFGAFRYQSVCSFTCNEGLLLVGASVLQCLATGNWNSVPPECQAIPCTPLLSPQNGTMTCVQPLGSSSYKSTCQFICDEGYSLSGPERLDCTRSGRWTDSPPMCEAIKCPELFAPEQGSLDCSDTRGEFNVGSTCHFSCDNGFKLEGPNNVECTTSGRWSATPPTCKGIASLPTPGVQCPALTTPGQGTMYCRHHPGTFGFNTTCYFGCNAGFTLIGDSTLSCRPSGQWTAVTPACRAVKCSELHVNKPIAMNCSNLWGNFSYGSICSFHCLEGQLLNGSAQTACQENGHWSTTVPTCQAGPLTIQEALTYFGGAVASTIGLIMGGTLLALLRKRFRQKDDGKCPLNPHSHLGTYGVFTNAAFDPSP

P-selectin = target: T4, P-selectin (Homo sapiens, UniProt P16109); test: Inhibitory activity against P-selectin was determined
T4 sequence (P16109 whole entry): T3 sequence (whole entry)

Activity [1]	Activity [2]	Activity [3]	IC50 (P-selectin) [µM]	SMILES
inactive	inactive	inactive		C[C@@]12CCC[C@@](C)(C(=O)O)C1CC[C@]13C[C@H](O[C@H]4O[C@H](CO)[C@@H](O)[C@@H](O)[C@@H]4O)[C@](O)(CCC12)C3 (stereo partly specified)
inactive	inactive		60	C[C@@]12CCC[C@@](C)(C(=O)O)C1CC[C@@]13C[C@@H](O[C@H]4O[C@H](CO)[C@@H](O)[C@@H](O)[C@@H]4O)[C@@](C)(CCC12)C3 (stereo partly specified)
